Results as given in patent US8895608B2, “Sulfonamide anti-viral compounds” (Kineta, Inc., priority 2010, dated 2014).
“Also recorded” adds a separate entry of the source.

Tests used:
Huh7 cells = experiment: MTS assay to determine cytotoxicity; assay type: cell-based, human; details: 24 hours, up to 50 μM
Description: MTS assay to determine cytotoxicity. Cultured human Huh7 cells are treated with increasing amounts of KIN600 or equivalent amounts of DMSO diluted in media for 24 hours to see their effect on cell viability.
Cell Titer One (Promega) is the one step reagent used according to manufacturer's protocol, and cells are incubated for three hours in the presence of reagent before O.D. reading is done. Compounds were diluted to final concentrations of 0, 5, 10, 20, and 50 μM in media containing 0.5% DMSO. Negative control wells contain no compound and positive control for cytotoxicity is examined using an EMCV infection which causes 100% cytopathic effect. Each compound concentration and control is done in triplicate wells to generate error bars.
Final KIN600 concentrations of 50 μM, 20 μM, 10 μM, and 5 μM were made in 0.5% DMSO containing media and were added to Huh7 cells to examine cytotoxicity in a MTS assay. Cells were treated for 24 hours with varying concentrations of compound and were analyzed for cell viability compared to negative control samples that were not treated with compound but grown in DMSO containing media. The cellular metabolism (O.D.) was in the range of 1.75 to below 2.0 at compound concentrations of 50 μM, 20 μM, 10 μM, 5 μM, and 0.

HCV2a virus = experiment: HCV IF antiviral assay; assay type: cell-based, Hepatitis C virus
[1] = tested on: Murine Encephalomyocarditis virus (EMCV); experiment: EMCV antiviral assay (cell viability by MTS after infection); details: Huh7 cells, 250 pfu EMCV, 18 hours

COC(=O)c1sccc1S(=O)(=O)Nc1ccc2c(c1)OCO2 [KIN600]
cytotoxicity (result in words) (Huh7 cells): no significant cytotoxicity; also recorded: no significant toxicity | HCV infected foci (number of FFU/well) (HCV2a virus; Huh7 cells pre-treated 24 hours at 10 μM, HCV2a MOI 0.1-0.5): 12±4 FFU/well | antiviral activity against HCV (result in words) (HCV2a virus; Huh7 cells, HCV2a): showed antiviral activity; also recorded: has antiviral properties | Cell viability post-infection ([1]; 5 μL): ~0.7 | Cell viability post-infection ([1]; 10 μL): ~1.4
